Test results taken from PubChem BioAssay (NCI).
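All cell lines were grown in 96-well plates and treated with compound for 48 hours. TGI marks complete inhibition of growth.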

Columns and labels:
Assay in all cases: NCI-60 cell line screen, 48 h
NCI-H522 lung = tested on: NCI-H522 lung
UO-31 renal = tested on: UO-31 renal
COLO 205 colon = tested on: COLO 205 colon
NCI-H226 lung = tested on: NCI-H226 lung
HOP-62 NSCLC = tested on: HOP-62 NSCLC
HCT-15 colon = tested on: HCT-15 colon
OVCAR-3 ovarian = tested on: OVCAR-3 ovarian
UACC-62 melanoma = tested on: UACC-62 melanoma
UACC-257 melanoma = tested on: UACC-257 melanoma
786-0 renal = tested on: 786-0 renal
HL-60(TB) leukemia = tested on: HL-60(TB) leukemia
SK-MEL-2 melanoma = tested on: SK-MEL-2 melanoma
LOX IMVI melanoma = tested on: LOX IMVI melanoma
MOLT-4 leukemia = tested on: MOLT-4 leukemia
SK-MEL-5 melanoma = tested on: SK-MEL-5 melanoma
CAKI-1 renal = tested on: CAKI-1 renal
A498 renal = tested on: A498 renal
SF-295 CNS = tested on: SF-295 CNS
HS 578T breast = tested on: HS 578T breast

| SMILES | TGI (NCI-H522 lung) | TGI (UO-31 renal) | TGI (COLO 205 colon) | TGI (NCI-H226 lung) | TGI (HOP-62 NSCLC) | TGI (HCT-15 colon) | TGI (OVCAR-3 ovarian) | TGI (UACC-62 melanoma) | TGI (UACC-257 melanoma) | TGI (786-0 renal) | TGI (HL-60(TB) leukemia) | TGI (SK-MEL-2 melanoma) | TGI (LOX IMVI melanoma) | TGI (MOLT-4 leukemia) | TGI (SK-MEL-5 melanoma) | TGI (CAKI-1 renal) | TGI (A498 renal) | TGI (SF-295 CNS) | TGI (HS 578T breast) |
| --- | --- | --- | --- | --- | --- | --- | --- | --- | --- | --- | --- | --- | --- | --- | --- | --- | --- | --- | --- |
| CC(C)OP(=O)(OC(C)C)/C(=N/Nc1ccc([N+](=O)[O-])cc1)NNC(=O)c1ccccc1 | > 100 µM | > 100 µM | > 100 µM | > 100 µM | > 100 µM | > 100 µM | > 100 µM | 36.5 µM | > 100 µM | > 100 µM | 68.9 µM | > 100 µM | 70.8 µM | 42.2 µM | 32 µM | > 100 µM |  |  |  |
| Cc1cc(N(CCC#N)CCC#N)ccc1/C=C(\N=[N+]=[N-])C(=O)NC(=O)COc1ccccc1 | > 100 µM | > 100 µM | > 100 µM | > 100 µM | > 100 µM | > 100 µM | > 100 µM | > 100 µM | > 100 µM | > 100 µM | > 100 µM | > 100 µM | > 100 µM | > 100 µM | > 100 µM | > 100 µM | > 100 µM | > 100 µM |  |
| Cc1cc2nc3c(C#N)c4c(c(Cl)n3c2cc1C)CCC4 | 32.5 µM |  | > 100 µM | > 100 µM | > 100 µM | 37.1 µM | 49.7 µM |  | > 100 µM | 29.5 µM |  |  | 32 µM | > 100 µM | 50.1 µM | 35.9 µM | > 100 µM | > 100 µM |  |
| CN(CCO)c1nc(=O)c2c(n1C1OC(CO)C(O)C(O)C1O)CCCC2 (stereo not drawn) | > 100 µM | > 100 µM | > 100 µM | > 100 µM | > 100 µM | > 100 µM | > 100 µM | > 100 µM | > 100 µM | > 100 µM | > 100 µM | > 100 µM | > 100 µM | > 100 µM | > 100 µM | > 100 µM |  | > 100 µM |  |
| CCCC1(N2C(=O)c3ccc4c5c(ccc(c35)C2=O)N(C2(CCC)CCCCC2)C4=O)CCCCC1 | > 100 µM | > 100 µM | > 100 µM |  | > 100 µM | > 100 µM | > 100 µM | > 100 µM |  | > 100 µM |  | > 100 µM |  | > 100 µM | > 100 µM | > 100 µM | > 100 µM | > 100 µM |  |
| CCOC(=O)C1=C(C)C2C3C(=O)OC(=O)C3C1(C)C1C(=O)OC(=O)C21 (stereo not drawn) |  | > 100 µM | > 100 µM | > 100 µM | > 100 µM | > 100 µM | > 100 µM | > 100 µM | > 100 µM | > 100 µM | > 100 µM | > 100 µM | > 100 µM | > 100 µM | > 100 µM |  | > 100 µM | > 100 µM |  |
| CN(C)C1(N(C)C)Oc2c(c(=O)n(C)c(=O)n2C)C(c2ccc(F)cc2)C1(F)F (stereo not drawn) |  | > 100 µM | > 100 µM | > 100 µM | > 100 µM | > 100 µM | > 100 µM | > 100 µM | > 100 µM | > 100 µM |  | > 100 µM | > 100 µM |  | > 100 µM | > 100 µM | > 100 µM | > 100 µM |  |
| CCOC(=O)C(C(=O)OCC)S(C)(=O)=O | > 100 µM | > 100 µM | > 100 µM | > 100 µM | > 100 µM |  | > 100 µM | > 100 µM | > 100 µM | > 100 µM | > 100 µM | > 100 µM | > 100 µM | > 100 µM | > 100 µM |  | > 100 µM | > 100 µM |  |
| N#CCCN(c1ccc(C=Nc2ccc(C(=O)O)cc2)cc1)S(=O)(=O)c1ccccc1 | > 100 µM | > 100 µM | > 100 µM | > 100 µM | > 100 µM | > 100 µM | > 100 µM | > 100 µM | > 100 µM | > 100 µM | > 100 µM | > 100 µM | > 100 µM | > 100 µM | > 100 µM | > 100 µM | > 100 µM | > 100 µM |  |
| COc1ccccc1NC(=O)C(=O)C(c1cnc2ccc([N+](=O)[O-])cc2n1)[N+](=O)[O-] (stereo not drawn) | > 100 µM | > 100 µM | > 100 µM | > 100 µM | > 100 µM | > 100 µM |  | > 100 µM | > 100 µM | > 100 µM | > 100 µM | > 100 µM | > 100 µM | > 100 µM | > 100 µM | > 100 µM | > 100 µM | > 100 µM |  |
| CC1=C(C(=O)NNC(=O)c2ccccc2O)CC(C(=O)NNC(=O)c2ccccc2O)=C(C)N1 | > 26.7 µM | 18.8 µM | > 86.8 µM | > 41.7 µM | > 86.2 µM | > 100 µM | > 23.4 µM | > 100 µM | > 100 µM | > 61.7 µM |  | > 100 µM | > 100 µM | > 100 µM | > 100 µM | > 100 µM |  | > 100 µM | > 100 µM |
| C[n+]1ccc2/c(=C\C#N)c3ccccc3n21 | 70.8 µM | > 100 µM | 45.4 µM | > 100 µM | > 100 µM | > 100 µM | 34.2 µM | > 100 µM | 13.9 µM | > 100 µM | 65.6 µM | 89.9 µM | 40.4 µM | > 100 µM | 35.6 µM | > 100 µM |  | > 100 µM |  |
| CCCCCCCC(=O)OC(COC(=O)Cc1ccccc1)COC(=O)C(C)(C)C (stereo not drawn) |  | > 100 µM | > 100 µM | > 100 µM | > 100 µM | > 100 µM | > 100 µM | > 100 µM |  | > 100 µM | > 100 µM |  | > 100 µM | > 100 µM | > 100 µM | > 100 µM | > 100 µM | > 100 µM |  |
| O=C1CS(=O)c2ccccc2N1 (stereo not drawn) | > 100 µM | > 100 µM | > 100 µM | > 100 µM | > 100 µM | > 100 µM | > 100 µM | > 100 µM | > 100 µM | > 100 µM | > 100 µM | > 100 µM | > 100 µM | > 100 µM | > 100 µM | > 100 µM | > 100 µM | > 100 µM |  |
